Data set [1] relates to red blood cells. Kind of data set: Thaw and overall hemolysis, 10% glycerol reduced cryopreservation model (Example 3). The class given is cell-based, human. The note with it: 10% (w/v) glycerol base. How it is done:
The model used is a reduced glycerol cryopreservation system. 10% (w/v) glycerol is added to the unit prior to freezing at −80° C.
A single unit of packed red blood cells in ADSOL was obtained using standard blood banking protocols. […] From this red blood cell unit 50 ml of red cells was placed into each of 3 PVC freezing bags having a maximum volume of 150 ml. An equal volume (50 ml) was added to each of the bags composed of the above preservation solution and the experimental conditions. The final composition of the first bag was 10% (w/v) glycerol. […] The overall hemolysis was also determined.

Data set [2] deals with red blood cells. From the text: Additionally, the glycerol was removed from the thawed red blood cell units by serial dilution with saline similar to blood bank protocols.
For data set [3], the system named is red blood cells. As to the kind of experiment: Thaw hemolysis of red blood cells frozen at −80° C. with reduced glycerol (Example 1). The class given is cell-based, human. To be noted: frozen at −80° C. 2-7 days, thawed 37° C. water bath 10 minutes; ratio of free to total hemoglobin. How it is done: A significant percentage of the hemolytic damage is shown to be reversed by the addition of a preservative solution containing adenine, glutamine, sodium chloride, mannitol, and dextrose, with the essential additive being dextrose, and final concentrations of 5 mM pentoxifylline and 25 μg/ml flurbiprofen in DMSO as a carrier.
Specifically, 50 ml of packed red blood cells was added to a PVC freezing bag with a maximum volume of 150 ml. Isotonic saline or preservative solution containing the additional biochemical reagents pentoxifylline and flurbiprofen was mixed with the red blood cells. A volume of Glycerolyte 57 (Fenwall) was added slowly until the final concentration of glycerol was achieved. The total volume of all additions was 50 ml, making the final […] of the red blood cell unit 100 ml. […] The levels of thaw hemolysis are shown below in TABLE 1.

Data set [4] concerns red blood cells. Kind of data set: Thaw and overall hemolysis, glycerol-based cryoprotectant with biochemical stabilization (Example 4). The format is cell-based, human. To be noted: for % Hemolysis Thaw: frozen −80° C., thawed 37° C. water bath 10 minutes; for % Hemolysis Overall: overall hemolysis following the wash with 12%, 1.6% and 0.9% saline. The procedure:
An aliquot of blood was transferred to a PVC storage bag, to which any experimental agents were added. Glycerol was then added until the desired final glycerol was achieved. This unit was frozen at −80° C., stored and thawed in a 37° C. water bath for 10 minutes. […] The values indicate the percent hemolysis in the thawed sample, the overall amount of hemolysis following the wash and the is percent of residual free hemoglobin in the final sample. Hemolysis is calculated as the ratio of free hemoglobin to the total hemoglobin content in the sample.

The test system of data set [5] is red blood cells. Kind of data set: Thaw, overall and final hemolysis, glycerol based cryoprotectant with additives (Example 2). The class given is cell-based, human. The note with it: additives in 20% glycerol; for Hemolysis (%) Overall: after glycerol removal by serial dilution with saline; for Hemolysis (%) Final (residual free hemoglobin): final residual free hemoglobin after wash; for Hemolysis (%) Thaw: frozen −80° C. 2-7 days, thawed 37° C. 10 minutes. How it is done: Fifty ml of packed red blood cells were added to a PVC freezing bag. Isotonic saline or preservative solution containing the additional biochemical reagents of interest was mixed with the red blood cells. The samples were treated as follows prior to freezing at −80° C.: • 1. 40% Glycerol • 2. 20% Glycerol • 3. Nicotinamide • 4.
A volume of Glycerolyte 57 (Fenwall) was added slowly until the final concentration of glycerol was achieved. The total volume of all additions was 50 ml, making the final volume of the red blood cell unit 100 ml. The PVC bags were frozen at −80° C. for 2-7 days and thawed by submersion in a 37° C. water bath for 10 minutes. The level of thaw hemolysis was determined as the ratio of free hemoglobin to total hemoglobin. Additionally, the glycerol was removed from the thawed red blood cell units by serial dilution with saline similar to blood bank protocols. The overall hemolysis and the final residual free hemoglobin levels were also determined.

Data set [6] deals with red blood cells. The note with it: frozen storage at −80° C., glycerol washed out prior to transfusion; typical level; cited from earlier work.
Where [7] appears, read: listed as 20% Glycerol with Control.

`OCC(O)CO` [10% Glycerol, glycerol]: the “% Hemolysis Overall” value with red blood cells [1] (after glycerol removal by serial dilution with saline) amounted to 93.62 ± 1.28%. Moreover, in the data set with red blood cells [1] (frozen −80° C. 2-7 days, thawed 37° C. 10 minutes), the “% Hemolysis Thaw” value turned out to be 61.71 ± 1.26%.
Turning to `C[S+](C)[O-]` [DMSO, dimethyl sulfoxide], the “% Hemolysis” value in the data set with red blood cells [2] was 23.17 ± 0.58%.
For `OCC(O)CO` [20% Glycerol, glycerol], the “% Hemolysis (level of thaw hemolysis)” value in the data set with red blood cells [3] was 35.29%. Moreover, in the data set on red blood cells [4] (setting [7]), the “% Hemolysis Thaw” value turned out to be 37.9% and the “% Hemolysis Overall” value came out at 52.0%. Moreover, in the data set with red blood cells [5], the “Hemolysis (%) Overall” value was 41.48%, the “Hemolysis (%) Final (residual free hemoglobin)” value turned out to be 1.09% and the “Hemolysis (%) Thaw” value is on record as 9.39%.
In the case of `OCC(O)CO` [30% Glycerol, glycerol], in the data set with red blood cells [3], the “% Hemolysis (level of thaw hemolysis)” value is recorded as 3.53%.
For `NC(=O)c1cccnc1` [Nicotinamide], in the data set with red blood cells [5], the “Hemolysis (%) Overall” value was 22.93%, the “Hemolysis (%) Final (residual free hemoglobin)” value amounted to 0.43% and the “Hemolysis (%) Thaw” value amounted to 8.13%.
Turning to `OCC(O)CO` [40% Glycerol, glycerol], the “% Hemolysis (level of thaw hemolysis)” value in the data set with red blood cells [3] is recorded as 1.91%. Moreover, in the data set on red blood cells [4], the “% Hemolysis Thaw” value came to 1.9% and the “% Hemolysis Overall” value was found to be 6.1%. Further, the “hemolysis during the wash procedure” value in the data set with red blood cells [6] is given as 10-15%. For the same molecule, in the data set with red blood cells [5], the “Hemolysis (%) Overall” value is given as 14.1%, the “Hemolysis (%) Final (residual free hemoglobin)” value is on record as 0.45% and the “Hemolysis (%) Thaw” value is reported as 2.01%.

The values above are taken from patent US8895236B2, “Composition for cryopreservation comprising nicotinamide, glycerol and red blood cells” (priority 1998, dated 2014).
